Test results from patent US7427637B2, “Mitotic kinesin inhibitors” (Merck & Co. Inc., priority 2003, dated 2008).

target: T1, human KSP motor domain (KSP(367H)) (Homo sapiens, UniProt P52732); test: Kinesin ATPase in vitro assay; type: biochemical; details: kinesin motor domain with microtubules, 1 mM ATP, 23° C.; free phosphate by quinaldine red/ammonium molybdate, absorbance 540 nm
T1 construct: were used to amplify the motor domain and the neck linker region; made in house; host or cells: E. coli BL21 (DE3), pRSETa
T1 sequence (P52732 18-359 limits assumed): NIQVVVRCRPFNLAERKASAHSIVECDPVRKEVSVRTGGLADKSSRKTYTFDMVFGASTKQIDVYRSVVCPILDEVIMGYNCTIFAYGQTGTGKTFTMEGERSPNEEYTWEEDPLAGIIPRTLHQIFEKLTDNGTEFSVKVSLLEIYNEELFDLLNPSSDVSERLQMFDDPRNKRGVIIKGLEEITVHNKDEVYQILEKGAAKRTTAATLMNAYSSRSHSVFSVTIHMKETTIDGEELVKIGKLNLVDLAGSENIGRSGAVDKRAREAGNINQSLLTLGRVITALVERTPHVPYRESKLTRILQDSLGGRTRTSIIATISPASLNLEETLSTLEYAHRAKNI
Source text: I. Kinesin ATPase In Vitro Assay
Cloning and Expression of Human Poly-histidine Tagged KSP Motor Domain_(KSP(367H))
Plasmids for the expression of the human KSP motor domain construct were cloned by PCR using a pBluescript full length human KSP construct (Blangy et al., Cell, vol. 83, pp 1159-1169, 1995) as a template. The N-terminal primer 5′-[…] (SEQ. ID. NO.: 1) and the C-terminal primer 5′-[…] […] (SEQ. ID. NO.: 2) were used to amplify the motor domain and the neck linker region. The PCR products were digested with AseI and XhoI, ligated into the NdeI/XhoI digestion product of pRSETa (Invitrogen) and transformed into E. coli BL21 (DE3).
Cells were grown at 37° C. to an OD600 of 0.5. After cooling the culture to room temperature expression of KSP was induced with 100 μM IPTG and incubation was continued overnight. Cells were pelleted by centrifugation and washed once with ice-cold PBS. Pellets were flash-frozen and stored −80° C.
Cell pellets were thawed on ice and resuspended in lysis buffer (50 mM K-HEPES, pH 8.0, 250 mM KCl, 0.1% Tween, 10 mM imidazole, 0.5 mM Mg-ATP, 1 mM PMSF, 2 mM benzimidine, 1× complete protease inhibitor cocktail (Roche)). Cell suspensions were incubated with 1 mg/ml lysozyme and 5 mM β-mercaptoethanol on ice for 10 minutes, followed by sonication (3×30 sec). All subsequent procedures were performed at 4° C. Lysates were centrifuged at 40,000×g for 40 minutes. Supernatants were diluted and loaded onto an SP Sepharose column (Pharmacia, 5 ml cartridge) in buffer A (50 mM K-HEPES, pH 6.8, 1 mM MgCl2, 1 mM EGTA, 10 μM Mg-ATP, 1 mM DTT) and eluted with a 0 to 750 mM KCl gradient in buffer A. Fractions containing KSP were pooled and incubated with Ni-NTA resin (Qiagen) for one hour. The resin was washed three times with buffer B (Lysis buffer minus PMSF and protease inhibitor cocktail), followed by three 15-minute incubations and washes with buffer B. Finally, the resin was incubated and washed for 15 minutes three times with buffer C (same as buffer B except for pH 6.0) and poured into a column. KSP was eluted with elution buffer (identical to buffer B except for 150 mM KCl and 250 mM imidazole). KSP-containing fractions were pooled, made 10% in sucrose, and stored at −80° C.
Microtubules are prepared from tubulin isolated from bovine brain. Purified tubulin (>97% MAP-free) at 1 mg/ml is polymerized at 37° C. in the presence of 10 μM paclitaxel, 1 mM DTT, 1 mM GTP in BRB80 buffer (80 mM K-PIPES, 1 mM EGTA, 1 mM MgCl2 at pH 6.8). The resulting microtubules are separated from non-polymerized tubulin by ultracentrifugation and removal of the supernatant. The pellet, containing the microtubules, is gently resuspended in 10 μM paclitaxel, 1 mM DTT, 50 μg/ml ampicillin, and 5 μg/ml chloramphenicol in BRB80.
The kinesin motor domain is incubated with microtubules, 1 mM ATP (1:1 MgCl2: Na-ATP), and compound at 23° C. in buffer containing 80 mM K-HEPES (pH 7.0), 1 mM EGTA, 1 mM DTT, 1 mM MgCl2, and 50 mM KCl. The reaction is terminated by a 2-10 fold dilution with a final buffer composition of 80 mM HEPES and 50 mM EDTA (or, alternately, with a 1:1 addition of reaction volume to stop buffer (1.8M KCl and 50 mM EDTA)). Free phosphate from the ATP hydrolysis reaction is measured via a quinaldine red/ammonium molybdate assay by adding a 1.5 times volume of quench C (e.g., to a mixture of 40 μl reaction volume+40 μl stop buffer is then added 120 μl quench C). Quench A contains 0.1 mg/ml quinaldine red and 0.14% polyvinyl alcohol; quench B contains 12.3 mM ammonium molybdate tetrahydrate in 1.15 M sulfuric acid. Quench C is a 2:1 ratio of quench A:quench B The reaction is incubated for 5-10 minutes at 23° C., and the absorbance of the phospho-molybdate complex is measured at 540 nm.

Row | Structure (SMILES) | IC50 [µM]
1 | O=C1OCC2C(c3cc(F)ccc3F)=CC(c3ccccc3)N12 (racemic) [Compound 1-9a, (±)-(5S,7aR and 5R,7aS)-7-(2,5-Difluorophenyl)-5-phenyl-2,7a-dihydro-1H-pyrrole[1,2-c][1,3]oxazol-3-one] | ≤ 50
2 | CN1C[C@H]2C(c3cc(F)ccc3F)=C[C@@H](c3ccccc3)N2C1=O (racemic) [Compound 2A-1a, (±)-(5S,7aR)-7-(2,5-Difluorophenyl)-2-methyl-5-phenyl-1,2,5,7a-tetrahydro-3H-pyrrolo[1,2-c]imidazol-3-one] | ≤ 50
3 | CCN1C[C@H]2C(c3cc(F)ccc3F)=C[C@@H](c3ccccc3)N2C1=O (racemic) [Compound 2A-1b, (±)-(5S,7aR)-7-(2,5-Difluorophenyl)-2-ethyl-5-phenyl-1,2,5,7a-tetrahydro-3H-pyrrolo[1,2-c]imidazol-3-one] | ≤ 50
4 | CN(C)CCN1C[C@H]2C(c3cc(F)ccc3F)=C[C@@H](c3ccccc3)N2C1=O (racemic) [Compound 2A-1c, (±)-(5S,7aR)-7-(2,5-Difluorophenyl)-2-[2-(dimethylamino)ethyl]-5-phenyl-1,2,5,7a-tetrahydro-3H-pyrrolo[1,2-c]imidazol-3-one] | ≤ 50
5 | CCN(CC)CCN1C[C@H]2C(c3cc(F)ccc3F)=C[C@@H](c3ccccc3)N2C1=O (racemic) [Compound 2A-1d, (±)-(5S,7aR)-7-(2,5-Difluorophenyl)-2-[2-(diethylamino)ethyl]-5-phenyl-1,2,5,7a-tetrahydro-3H-pyrrolo[1,2-c]imidazol-3-one] | ≤ 50
6 | CN1CC(=O)N2[C@@H](C1)C(c1cc(F)ccc1F)=C[C@H]2c1ccccc1 (racemic) [Compound 4-1, (±)-(6S,8aR and 6R,8aS)-8-(2,5-Difluorophenyl)-2-methyl-6-phenyl-2,3,6,8a-tetrahydropyrrolo[1,2-a]pyrazin-4(1H)-one] | ≤ 50
7 | O=C1CN2[C@@H](CN1)C(c1cc(F)ccc1F)=C[C@H]2c1ccccc1 (racemic) [Compound 5-1, (±)-(6S,8aR and 6R,8aS)-8-(2,5-Difluorophenyl)-6-phenyl-1,2,6,8a-tetrahydropyrrolo[1,2-a]pyrazin-3(4H)-one] | ≤ 50

The remaining lines, values ahead:

Row | IC50 [µM] | Structure (SMILES)
8 | ≤ 50 | O=C1NCC2C(c3cc(F)ccc3F)=CC(c3ccccc3)N12 (racemic) [Compound 2-4a, (±)-7-(2,5-Difluorophenyl)-5-phenyl-1,2,5,7a-tetrahydro-3H-pyrrolo[1,2-c]imidazol-3-one]
9 | ≤ 50 | O=C1CNC[C@H]2C(c3cc(F)ccc3F)=C[C@@H](c3ccccc3)N12 (racemic) [Compound 3-2a, (±)-(2S,5R and 2R,5S)-7-(2,5-Difluorophenyl)-5-phenyl-1,2,5,7a-tetrahydro-3H-pyrrolo[1,2-a]pyrazin-4(1H)-one]
10 | ≤ 50 | O=C1CNCC2C(c3cc(F)ccc3F)=CC(c3ccccc3)N12 (racemic) [Compound 3-2b, (±)-(2S,5S and 2R,5R)-7-(2,5-Difluorophenyl)-5-phenyl-1,2,5,7a-tetrahydro-3H-pyrrolo[1,2-a]pyrazin-4(1H)-one]
